Experimental data taken from US10624877B2, “Composition and method for treatment of symptoms associated with various skin conditions” (priority 2011, dated 2020).

Key:
eye = details: in vivo; cited from earlier work
[1] = chronic studies; cited from earlier work
skin [2] = details: human exposure studies and clinical experience; cited from earlier work
[3] = in vivo; cited from earlier work
skin [4] = details: clinical studies; could be related to formaldehyde release; cited from earlier work
[5] = laboratory study; cited from earlier work
[6] = concentrations higher than in products; attributed to formaldehyde release; cited from earlier work
skin [7] = details: cited from earlier work
S1P lyase = biological target: T1, S1P lyase (Mus musculus, UniProt Q8R0X7); details: when administered to mice; cited from earlier work
T1 sequence (Q8R0X7 1-568): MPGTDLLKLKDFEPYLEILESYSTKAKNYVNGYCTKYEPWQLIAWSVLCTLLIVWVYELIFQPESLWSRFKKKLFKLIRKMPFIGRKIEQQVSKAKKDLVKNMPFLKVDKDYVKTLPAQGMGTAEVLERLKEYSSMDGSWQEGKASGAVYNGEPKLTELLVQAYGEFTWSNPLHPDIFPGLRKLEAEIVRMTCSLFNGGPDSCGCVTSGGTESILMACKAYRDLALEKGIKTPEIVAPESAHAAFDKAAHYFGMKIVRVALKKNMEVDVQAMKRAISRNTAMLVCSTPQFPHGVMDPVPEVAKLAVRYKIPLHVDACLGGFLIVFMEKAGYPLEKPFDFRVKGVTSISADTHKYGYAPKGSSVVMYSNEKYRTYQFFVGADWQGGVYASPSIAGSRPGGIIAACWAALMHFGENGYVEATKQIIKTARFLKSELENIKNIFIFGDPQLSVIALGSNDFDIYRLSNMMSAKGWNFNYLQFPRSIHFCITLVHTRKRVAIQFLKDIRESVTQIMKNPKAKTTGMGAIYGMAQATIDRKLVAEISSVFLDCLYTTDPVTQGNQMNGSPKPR

rats = details: administration to rats; cited from earlier work
[8] = Examination of 1.0% THI cream on a mixing plate; assay type: physicochemical; details: 100 mg THI in 10 g base cream (1.0%)
Procedure: A topical formulation containing 100 mg of THI in 10 g of base cream was prepared as follows. […] A smooth cream was obtained by levigation in a marble mortar and pestle. A dime-sized portion of the […] material was then incorporate geometrically with similar-sized portions of base and mixed thoroughly. […] Application of the finished cream to the skin left no residue.

mice = details: administration to mice; cited from earlier work
humans = details: studies in humans; cited from earlier work
[9] = in vivo; cited from earlier work; remark: listed apart in the source
[10] = dermal laboratory studies; cited from earlier work
skin [11] = details: clinical studies; cited from earlier work
[12] = subchronic oral, high doses; cited from earlier work

Carbomer
eye irritation (eye): no to moderate eye irritation

CCCCCCCCCCCCCCCCCC(=O)OCC(O)CO (stereo not shown) [glyceryl stearate, Glyceryl stearate]
carcinogenic effects [1]: no carcinogenic effects
effects on reproduction [1]: no adverse effects on reproduction
sensitization, phototoxicity, photosensitization (skin [2]): non-sensitizing, non-phototoxic and non-photosensitizing

PEG-100 stearate
changes in growth, histopathologic observations or hematologic values [3]: no significant changes

CC1(C)C(=O)N(CO)C(=O)N1CO [DMDM hydantoin, 1,3-Bis(hydroxymethyl)-5,5-dimethylimidazolidine-2,4-dione]
skin irritation (skin [4]): some observations of skin irritation
adverse effects of oral exposure [5]: did not result in any adverse effects
in vitro mutagenicity [6]: positive results in some in vitro mutagenicity studies
absorption from the skin (skin [7]): poorly absorbed from the skin

CC(=O)c1nc(C(O)C(O)C(O)CO)c[nH]1 (stereo not shown) [THI, 2-acetyl-4-tetrahydroxybutylimidazole]
S1P lyase activity (S1P lyase): inhibits S1P lyase activity
accumulation of mature T cells in the thymus (rats): causes the accumulation of mature T cells in the thymus
lymphopenia (rats): induces lymphopenia
dissolution of THI in the cream base [8]: at least partially dissolving in the cream base
accumulation of mature T cells in the thymus (mice): causes the accumulation of mature T cells in the thymus
lymphopenia (mice): induces lymphopenia
immunological effects in humans (humans): no immunological effects

OCCOc1ccccc1 [phenoxyethanol, 2-Phenoxyethanol]
toxicity via oral and dermal administration [9]: practically nontoxic
birth defects [10]: did not cause any birth defects
delayed hypersensitivity (skin [11]): did not cause delayed hypersensitivity
phototoxicity (skin [11]): nonphototoxic
primary and cumulative irritation (skin [11]): neither a primary nor a cumulative irritant
organ weights [12]: increased weights of some organs
